# Assay results taken from patent US11116765B2 (GRIFOLS, S.A., priority 2014, dated 2021).
# Like-named read-outs stand apart in the source and are kept apart here.
# Experiments:
# [1] = test system: Mycobacterium avium subsp hominissuis (MAH) MAC104 strain; test: MAH lung infection in C57BL/6 mice, intranasal treatment; format: in vivo; settings: 3 weeks
# [2] = test system: M. avium 104; settings: 100 mcg/mL
# [3] = test system: M. abscessus 105; settings: 100 mcg/mL
# [4] = test system: M. avium 104; settings: THP-1 human macrophages, 20 mcg/mL
# [5] = test system: M. avium 104; settings: THP-1 human macrophages, 200 mcg/mL
# [6] = test system: M. avium; settings: incubation of M. avium with antibiotic; cited from earlier work
SMILES,effect on the growth of MAH in the lungs of mice compared with saline control [1],"Biofilm Colonization, Time: 4 Days [2]","Biofilm Colonization, Time: 4 Days [3]","Colonization in macrophages, Time: 4 days [4]","Colonization in macrophages, Time: 4 days [5]",effect on M. avium biofilm formation [6]
"O=C(O)c1cn(C2CC2)c2cc(N3CCNCC3)c(F)cc2c1=O [Ciprofloxacin, ciprofloxacin]",no significant effect,4.0 ± 0.3 × 10^7,3.0 ± 0.5 × 10^7,1.1 ± 0.4 × 10^4,5.0 ± 0.3 × 10^4,
[H]/N=C(/N)N[C@H]1[C@H](O)[C@@H](O)[C@H](O[C@@H]2O[C@@H](C)[C@](O)(C=O)[C@H]2O[C@@H]2O[C@@H](CO)[C@H](O)[C@@H](O)[C@@H]2NC)[C@@H](N/C(N)=N\[H])[C@@H]1O [streptomycin],,,,,,increase
CC1(C)S[C@@H]2[C@H](NC(=O)[C@H](N)c3ccccc3)C(=O)N2[C@H]1C(=O)O [ampicillin],,,,,,no effect on biofilm
